Assay results published in publication PMC3260434 (Journal of Molecular Neuroscience, 2011).
No end group written: not given here.

Assays:
[1] = tested on: OX2R; settings: heterologous expression systems; ref Sakurai et al. [1998]; Ammoun et al. [2003]; cited from earlier work
[2] = tested on: primary neuronal cell cultures from rat cerebral cortex; assay: Assay of cyclic AMP formation; format: cell-based; settings: for Increase in cyclic AMP production over the basal level: forskolin 1 μM, PACAP27 0.1 μM, VIP 3 μM, rat neuronal cell cultures
[3] = tested on: astrocyte cultures from rat cerebral cortex; settings: ref Woldan-Tambor et al. [2011]; cited from earlier work

Compound	Increase in cyclic AMP production over the basal level [2]	also measured
orexin B: neuropeptide derived from preproorexin; literature affinity only		Affinity of OX2R for orexins A and B [1]: equal affinity
[Ala^11-D-Leu^15]orexin B		Effect on basal cyclic AMP accumulation ([2]; 0.001–1 μM, cultured rat cortical neurons, data not shown): No significant effects
PACAP27	three- to fivefold over the basal level	
C=C[C@@]1(C)CC(=O)[C@]2(O)[C@@]3(C)[C@@H](O)CCC(C)(C)[C@@H]3[C@H](O)[C@H](OC(C)=O)[C@@]2(C)O1 [forskolin]	three- to fivefold over the basal level	
orexin A: neuropeptide, an agonist of OX1R and OX2R; from NeoMPS (QPLPDCCRQKTCSCRLYELLHGAGNHAAGILTL; ends and bridges not checked; cysteine pairing not given here; UniProt O43612 34-66, looked up)		Effect on cyclic AMP synthesis in astrocyte cultures [3]: stimulatory effect
VIP: vasoactive intestinal peptide (human, porcine, and rat) (HSDAVFTDNYTRLRKQMAVKKYLNSILN; ends and bridges not checked; UniProt P01282 125-152, looked up)	three- to fivefold over the basal level	
